# Laboratory results reported in patent US20240327393A1 (SIRONAX LTD., priority 2021, published 2024).
# Tested on: HT-1080 (ATCC, CCL-121) cells
# Assay: HT-1080 cell viability assay with ferroptosis inducer RSL3 (Cell Titer-Glo)
# Assay type: cell-based
# Settings: Homo sapiens; HT-1080 cells treated with RSL3; 3-fold, 10-point dilution, 1.1 μM highest concentration; Table 2; read-out: EC50 (nM), ferroptosis inhibitory activity
# Summary of the method: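 HT-1080 cells (6000 per well) were cultured overnight at 37 °C, then co-treated with RSL3 and compound in a 3-fold, 10-point series topping at 1.1 μM. Viability was read by CellTiter-Glo luminescence and normalized to untreated controls. EC50 came from a sigmoidal non-linear regression fit.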
row,Structure (SMILES),EC50 [nM]
1,"CC1CN(c2ccc(Nc3ccc4c(c3)n(C)c(=O)n4CCN(C)C)cc2)CC(C)O1 (stereo not shown) [Compound 426, 1-(2-(dimethylamino)ethyl)-5-((4-(2,6-dimethylmorpholino)phenyl)amino)-3-methyl-1,3-dihydro-2H-benzo[d]imidazol-2-one]",0.1 to 100
2,"CCN1Cc2cc(Nc3cc(F)c(N4CCC(C)CC4)c(F)c3)ccc2C1=O [Compound 193, 5-((3,5-difluoro-4-(4-methylpiperidin-1-yl)phenyl)amino)-2-ethylisoindolin-1-one]",0.1 to 100
3,"CNCCN1C(=O)COc2cc(Nc3ccc(N4CCC(C(F)(F)F)CC4)cc3)ccc21 [Compound 43, 4-(2-(methylamino)ethyl)-7-((4-(4-(trifluoromethyl)piperidin-1-yl)phenyl)amino)-2H-benzo[b][1,4]oxazin-3(4H)-one]",0.1 to 100
4,"CN1Cc2cc(Nc3ccc(N4CCCC(C(F)(F)F)C4)cc3)ccc2C1=O (stereo not shown) [Compound 242, 2-methyl-5-((4-(3-(trifluoromethyl)piperidin-1-yl)phenyl)amino) isoindolin-1-one]",0.1 to 100
5,"CN1C(=O)NCc2cc(Nc3ccc(N4CCC(C(F)(F)F)CC4)cc3)ccc21 [Compound 137, 1-methyl-6-((4-(4-(trifluoromethyl)piperidin-1-yl)phenyl)amino)-3,4-dihydroquinazolin-2(1H)-one]",0.1 to 100
6,"CN1CC(=O)N(C)c2ccc(Nc3ccc(N4CCC(C(F)(F)F)CC4)cc3)cc21 [Compound 109, 1,4-dimethyl-6-((4-(4-(trifluoromethyl)piperidin-1-yl)phenyl)amino)-3,4-dihydroquinoxalin-2(H)-one]",0.1 to 100
7,"CNCCN1C(=O)COc2cc(Nc3ccc(N4CC(C)OC(C)C4)cc3C)ccc21 (stereo not shown) [Compound 55, 7-((4-(2,6-dimethylmorpholino)-2-methylphenyl)amino)-4-(2-(methylamino)ethyl)-2H-benzo[b][1,4]oxazin-3(4H)-one]",0.1 to 100
8,"COc1cc(Nc2ccc(N3CCC(C(F)(F)F)CC3)cc2)cc2c1ccn2C [Compound 395, 4-methoxy-1-methyl-N-(4-(4-(trifluoromethyl)piperidin-1-yl)phenyl)-1H-indol-6-amine]",0.1 to 100
9,"O=C1c2ccc(Nc3ccc(N4CCCCC4)cc3)cc2CN1CC1CC1 [Compound 185, 2-(cyclopropylmethyl)-5-((4-(piperidin-1-yl)phenyl)amino)isoindolin-1-one]",0.1 to 100
10,"CC1CCN(c2ccc(Nc3ccc4c(ccn4C)c3)cc2)CC1 [Compound 329, 1-methyl-N-(4-(4-methylpiperidin-1-yl)phenyl)-1H-indol-5-amine]",0.1 to 100
11,"CC(=O)N1Cc2ccc(Nc3ccc(N4CCC(F)(F)CC4)cc3)cc2C1 [Compound 166, 1-(5-((4-(4,4-difluoropiperidin-1-yl)phenyl)amino)isoindolin-2-yl) ethan-1-one]",0.1 to 100
12,"CN1C(=O)c2ccc(Nc3ccc(N4CCC(C(F)(F)F)CC4)cc3)cc2C1=O [Compound 201, 2-methyl-5-((4-(4-(trifluoromethyl)piperidin-1-yl)phenyl)amino) isoindoline-1,3-dione]",0.1 to 100
13,"CCN(CCC(=O)OC)c1ccc(Nc2ccc3c(c2)n(C)c(=O)n3C)cc1 [Compound 361, methyl 3-((4-((1,3-dimethyl-2-oxo-2,3-dihydro-1H-benzo[d]imidazol-5-yl)amino)phenyl)(ethyl)amino)propanoate]",100 to 1000
14,"CC1CCN(c2ccc(Nc3ccc4c(c3)CN(CC3CC3)C4=O)cc2)CC1 [Compound 184, 2-(cyclopropylmethyl)-5-((4-(4-methylpiperidin-1-yl)phenyl)amino) isoindolin-1-one]",0.1 to 100
15,"CN1C(=O)COc2cc(Nc3cc(F)c(N4CCC(C(F)(F)F)CC4)c(F)c3)ccc21 [Compound 57, 7-((3,5-difluoro-4-(4-(trifluoromethyl)piperidin-1-yl)phenyl)amino)-4-methyl-2H-benzo[b][1,4]oxazin-3(4H)-one]",0.1 to 100
16,"Cc1cc(N2CCC(C(F)(F)F)CC2)ccc1Nc1ccc2c(c1)OCC(=O)N2C [Compound 78, 4-methyl-7-((2-methyl-4-(4-(trifluoromethyl)piperidin-1-yl)phenyl)amino)-2H-benzo[b][1,4]oxazin-3(4H)-one]",0.1 to 100

# Same assay, conditions: Homo sapiens; HT-1080 cells treated with RSL3; 3-fold, 10-point dilution, 1.1 μM highest concentration; Table 3; read-out: EC50 (nM), ferroptosis inhibitory activity
row,Structure (SMILES),EC50 [nM]
1,"Cc1cc(N2CCC(C(F)(F)F)CC2)ccc1Nc1ccc2c(c1)OCC(=O)N(C)C2 [Compound 631, 4-methyl-8-((2-methyl-4-(4-(trifluoromethyl)piperidin-1-yl)phenyl)amino)-4,5-dihydrobenzo[f][1,4]oxazepin-3(2H)-one]",0.1 to 100
2,"CN1C(=O)COc2cc(Nc3ccc(N4CCC(C(F)(F)F)CC4)cc3)c(O)cc21 [Compound 495, 6-hydroxy-4-methyl-7-({4-[4-(trifluoromethyl)piperidin-1-yl]phenyl}amino)-2H-1,4-benzoxazin-3-one]",0.1 to 100
3,"Cc1cc(N2CCC(F)C2)ccc1Nc1ccc2c(c1)OCC(=O)N2 (stereo not shown) [Compound 599, 7-{[4-(3-fluoropyrrolidin-1-yl)-2-methylphenyl]amino}-2,4-dihydro-1,4-benzoxazin-3-one]",0.1 to 100
4,"Cc1cc(N2CCC(C)CC2)ccc1Nc1ccc2c(c1)OCC(=O)N2 [Compound 491, 7-((2-methyl-4-(4-methylpiperidin-1-yl)phenyl)amino)-2H-benzo[b][1,4]oxazin-3(4H)-one]",0.1 to 100
5,"Cc1cc(N2CCC(C(F)(F)F)CC2)ccc1Nc1ccc2c(c1)COC(=O)N2 [Compound 539, 6-((2-methyl-4-(4-(trifluoromethyl)piperidin-1-yl)phenyl)amino)-1,4-dihydro-2H-benzo[d][1,3]oxazin-2-one]",0.1 to 100
6,"Cc1cc(N2CCC(C(F)(F)F)CC2)ccc1Nc1ccc2c(c1)COCC(=O)N2 [Compound 650, 7-((2-methyl-4-(4-(trifluoromethyl)piperidin-1-yl)phenyl)amino)-1,5-dihydrobenzo[e][1,4]oxazepin-2(3H)-one]",0.1 to 100
7,"COC1CN(c2ccc(Nc3ccc4c(c3)OCC(=O)N4)c(C)c2)C1 [Compound 578, 7-((4-(3-methoxyazetidin-1-yl)-2-methylphenyl)amino)-2H-benzo[b][1,4]oxazin-3(4H)-one]",0.1 to 100
8,"Cc1cc(N2CC(O)(C(F)(F)F)C2)ccc1Nc1ccc2c(c1)OCCC(=O)N2 [Compound 649, 8-[4-[3-hydroxy-3-(trifluoromethyl)azetidin-1-yl]-2-methyl-anilino]-3,5-dihydro-2H-1,5-benzoxazepin-4-one]",0.1 to 100
9,"Cc1cc(N2C[C@@H](C)O[C@@H](C)C2)ccc1Nc1ccc2[nH]cnc2c1 [Compound 493, N-(4-((2R,6S)-2,6-dimethylmorpholino)-2-methylphenyl)-1H-benzo[d] imidazol-5-amine]",0.1 to 100
10,"Cc1cc(N2CC(C)OC(C)C2)ccc1Nc1cnc2c(c1)OCC(=O)N2 (stereo not shown) [Compound 462, 7-((4-(2,6-dimethylmorpholino)-2-methylphenyl)amino)-2H-pyrido[3,2-b][1,4]oxazin-3(4H)-one]",0.1 to 100
11,"Cc1cc(N2CCC(F)CC2)ccc1Nc1cnc2c(c1)OCC(=O)N2 [Compound 558, 7-(4-(4-fluoropiperidin-1-yl)-2-methylphenylamino)-2H-pyrido[3,2-b][1,4]oxazin-3(4H)-one]",0.1 to 100
12,"Cc1cc(N2CCC(C(F)(F)F)CC2)ccc1Nc1cc2c(cc1C)NC(=O)CO2 [Compound 512, 6-methyl-7-((2-methyl-4-(4-(trifluoromethyl)piperidin-1-yl)phenyl)amino)-2H-benzo[b][1,4]oxazin-3(4H)-one]",0.1 to 100
